Measured values as given in BindingDB's records for PubMed 10565848 (Washington State University, 1999).
pKi: −log10 of the molar value. “And” between values parts separate entries of the source, which are not always exact repeats. Equal entries are not always repeated. Where a SMILES comes first, the peptide text is derived from it. [ ]: non-standard residue; d: D form. GABA = NCCCC(=O)O

Target: Angiotensin-converting enzyme 2 (Bos taurus, UniProt Q58DD0)
Sequence (Q58DD0 whole entry): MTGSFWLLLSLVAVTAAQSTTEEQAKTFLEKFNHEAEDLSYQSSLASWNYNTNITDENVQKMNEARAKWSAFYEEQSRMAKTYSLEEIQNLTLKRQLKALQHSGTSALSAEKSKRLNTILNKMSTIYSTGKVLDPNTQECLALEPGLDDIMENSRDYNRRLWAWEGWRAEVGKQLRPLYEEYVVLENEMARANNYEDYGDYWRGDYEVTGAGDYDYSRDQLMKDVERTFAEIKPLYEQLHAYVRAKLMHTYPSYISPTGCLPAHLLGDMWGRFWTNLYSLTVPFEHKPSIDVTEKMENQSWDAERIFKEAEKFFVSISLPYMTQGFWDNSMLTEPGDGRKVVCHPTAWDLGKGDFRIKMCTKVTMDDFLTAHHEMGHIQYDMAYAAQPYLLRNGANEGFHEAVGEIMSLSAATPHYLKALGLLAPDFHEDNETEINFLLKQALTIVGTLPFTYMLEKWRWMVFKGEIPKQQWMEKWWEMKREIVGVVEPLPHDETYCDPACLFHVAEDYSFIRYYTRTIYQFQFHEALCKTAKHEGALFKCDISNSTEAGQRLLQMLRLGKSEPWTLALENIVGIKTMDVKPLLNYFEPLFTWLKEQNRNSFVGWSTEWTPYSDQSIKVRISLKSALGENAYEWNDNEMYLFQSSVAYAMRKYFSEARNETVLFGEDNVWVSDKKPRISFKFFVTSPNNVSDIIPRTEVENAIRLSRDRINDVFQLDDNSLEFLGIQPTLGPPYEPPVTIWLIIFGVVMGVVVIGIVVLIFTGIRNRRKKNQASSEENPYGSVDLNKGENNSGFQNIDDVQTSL

Row | SMILES | pKi
1 | CC[C@H](C)[C@H](NC(=O)[C@H](Cc1ccc(O)cc1)NC(=O)[C@H](N)C(C)C)C(=O)N[C@@H](Cc1cnc[nH]1)C(=O)N1CCC[C@H]1C(=O)N[C@@H](Cc1ccccc1)C(=O)O [Ang IV D-Val1] | 6.00
2 | CC[C@H](C)[C@H](NC(=O)[C@H](Cc1ccc(O)cc1)NC(=O)[C@@H](NC(=O)[C@H](CCCNC(=N)N)NC(=O)[C@@H](N)CC(=O)O)C(C)C)C(=O)N[C@@H](Cc1c[nH]cn1)C(=O)N1CCC[C@H]1C(=O)O [Ang(1-7)] | 6.00
3 | CC(C)[C@H](N)C(=O)N[C@@H](Cc1ccc(O)cc1)C(=O)O [Ang(3-4)] (H-Val-Tyr-OH) | 6.00
4 | Cc1cc(Cn2cnc3c2C[C@@H](C(=O)O)N(C(=O)C(c2ccccc2)c2ccccc2)C3)ccc1N | < 5.00
5 | CC[C@H](C)[C@H](NC(=O)[C@H](Cc1ccc(O)cc1)NC(=O)[C@@H](NC(=O)[C@H](CCCN=C(N)N)NC(=O)CNC)C(C)C)C(=O)N[C@@H](Cc1cnc[nH]1)C(=O)N1CCC[C@H]1C(=O)N[C@H](C(=O)O)C(C)O (stereo partly specified) [Ang II Thr8, Sar1] | 6.00
6 | CC[C@H](C)[C@H](NC(=O)[C@H](Cc1ccc(O)cc1)NC(=O)[C@@H](N)C(C)C)C(=O)N[C@@H](Cc1cnc[nH]1)C(=O)N1CCC[C@H]1C(=O)N[C@@H](Cc1ccccc1)C(=O)O | 8.26 and 8.45
7 | CC[C@H](C)[C@H](NC(=O)[C@H](Cc1ccc(O)cc1)NC(=O)CCCN)C(=O)N[C@@H](Cc1cnc[nH]1)C(=O)N1CCC[C@H]1C(=O)N[C@@H](Cc1ccccc1)C(=O)O [Ang IV Nor1] (H-[GABA]YIHPF-OH) | 8.07 and 8.49
8 | CCC(C)[C@H](NC(=O)[C@@H]1CCCN1C(=O)[C@H](Cc1cnc[nH]1)NC(=O)[C@@H](NC(=O)[C@H](Cc1ccc(O)cc1)NC(=O)[C@@H](NC(=O)[C@H](CCCN=C(N)N)NC(=O)CNC)C(C)C)[C@@H](C)CC)C(=O)O (stereo partly specified) [Ang II Ile8, Sar1] | 6.00
9 | CC[C@H](C)[C@H](NC(=O)[C@H](Cc1ccc(O)cc1)NC(=O)[C@@H](NC(=O)[C@@H](N)CCCN=C(N)N)C(C)C)C(=O)N[C@@H](Cc1c[nH]cn1)C(=O)N1CCC[C@H]1C(=O)N[C@@H](Cc1ccccc1)C(=O)O [CAS_12687-51-3] | 7.20 and 7.43
10 | CC[C@H](C)[C@H](NC(=O)[C@@H](N)Cc1ccc(O)cc1)C(=O)N[C@@H](Cc1cnc[nH]1)C(=O)N1CCC[C@H]1C(=O)N[C@@H](Cc1ccccc1)C(=O)O [Ang(4-8)] (H-YIHPF-OH) | 6.00
11 | CC[C@H](C)[C@H](NC(=O)[C@H](Cc1ccc(O)cc1)NC(=O)[C@@H](NC(=O)[C@H](CCCNC(=N)N)NC(=O)[C@@H](N)CC(=O)O)C(C)C)C(=O)N[C@@H](Cc1cnc[nH]1)C(=O)N[C@H](C)C(=O)O [Ang(1-7) D-Ala7] (H-DRVYIH[dA]-OH) | 6.00
12 | CCCCc1nc(Cl)c(CO)n1Cc1ccc(-c2ccccc2-c2nn[nH]n2)cc1 [NSC_3961] | < 5.00
13 | CC[C@H](C)[C@H](NC(=O)[C@H](Cc1ccc(O)cc1)NC(=O)[C@@H](NC(=O)[C@H](CCCNC(=N)N)NC(=O)[C@@H](N)CC(=O)O)C(C)C)C(=O)N[C@@H](Cc1cnc[nH]1)C(=O)N1CCC[C@H]1C(=O)N[C@@H](Cc1ccccc1)C(=O)O [NSC_439662] | 6.39 and 6.24

More lines, now with the values ahead:

Row | pKi | SMILES
14 | 6.93 | CC[C@H](C)[C@H](NC(=O)[C@H](Cc1ccc(O)cc1)NC(=O)[C@@H](N)C(C)C)C(=O)N[C@@H](Cc1cnc[nH]1)C(=O)N1CCC[C@H]1C(=O)N[C@@H](Cc1ccccc1)C(=O)N[C@@H](Cc1cnc[nH]1)C(=O)N[C@@H](CC(C)C)C(=O)N[C@H](C(=O)O)C(C)C [Ang(3-11)] (H-VYIHPFHLV-OH)
15 | 7.86 | CCCC[C@H](N)C(=O)N[C@H](Cc1ccccc1)C(=O)NCCCCCC(N)=O [NleYI-6-hexamide]
16 | 7.73 | CC[C@H](C)[C@H](NC(=O)[C@H](Cc1ccc(O)cc1)NC(=O)[C@@H](N)C(C)C)C(=O)N[C@@H](Cc1c[nH]cn1)C(=O)N1CCC[C@H]1C(=O)N[C@@H](Cc1ccccc1)C(=O)N[C@@H](Cc1c[nH]cn1)C(=O)N[C@@H](CC(C)C)C(=O)O [Ang(3-10)] (H-VYIHPFHL-OH)
17 | 7.47 | CC[C@H](C)[C@H](NC(=O)[C@H](Cc1ccc(O)cc1)NC(=O)[C@@H](NC(=O)[C@@H](N)CCCN=C(N)N)C(C)C)C(=O)N[C@@H](Cc1cnc[nH]1)C(=O)N1CCC[C@H]1C(=O)O [Ang(2-7)]
18 | 7.98 | CC[C@H](C)[C@H](NC(=O)[C@H](Cc1ccc(O)cc1)NC(=O)[C@@H](N)C(C)C)C(=O)N[C@@H](Cc1cnc[nH]1)C(=O)N1CCC[C@H]1C(=O)O [Ang(3-7)] (H-VYIHP-OH)
19 | 7.84 | CC[C@H](C)[C@H](NC(=O)[C@H](Cc1ccc(O)cc1)NC(=O)[C@@H](N)C(C)C)C(=O)N[C@@H](Cc1cnc[nH]1)C(=O)O [Ang(3-6)] (H-VYIH-OH)
20 | 8.14 | CC[C@H](C)[C@H](NC(=O)[C@H](Cc1ccc(O)cc1)NC(=O)[C@@H](N)C(C)C)C(=O)N[C@@H](Cc1c[nH]cn1)C(=O)N1CCC[C@H]1C(=O)N[C@@H](Cc1ccccc1)C(=O)N[C@@H](Cc1c[nH]cn1)C(=O)O [Ang(3-9)] (H-VYIHPFH-OH)
21 | 8.00 | CC[C@H](C)[C@H](NC(=O)[C@H](Cc1ccc(O)cc1)NC(=O)[C@@H](N)C(C)C)C(=O)O [Ang(3-5)] (H-Val-Tyr-Ile-OH)
